How the values were obtained:
Assay type in all cases: in vivo
[1] = test system: barnyardgrass (Echinochloa crus-galli); assay: Test A preemergence; details: Echinochloa crus-galli, pre-emergence, 240 h, 0 to 100 scale where 0 is no effect and 100 is complete control, read-out: Barnyardgrass plant response rating
Procedure, shortened: (§1)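 Greenhouse, ~10 d after spray; visual injury vs untreated controls, 0 = no effect, 100 = complete control. Preemergence: directed soil spray over planted seeds. Postemergence: plants 2–10 cm, 1–2 leaf stage. Loam/sand blend. Compound in non-phytotoxic solvent with surfactant.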

[2] = test system: giant foxtail (Setaria faberii); assay: Test A preemergence; details: Setaria faberi, pre-emergence, 240 h, 0 to 100 scale where 0 is no effect and 100 is complete control, read-out: Foxtail, Giant plant response rating
Procedure, shortened: as §1

[3] = test system: ryegrass, Italian (Italian ryegrass, Lolium multiflorum); assay: Test A preemergence; details: Lolium multiflorum, pre-emergence, 240 h, 0 to 100 scale where 0 is no effect and 100 is complete control, read-out: Ryegrass, Italian plant response rating
Procedure, shortened: as §1

[4] = test system: ragweed (common ragweed, Ambrosia elatior); assay: Test A preemergence; details: Ambrosia artemisiifolia, pre-emergence, 240 h, 0 to 100 scale where 0 is no effect and 100 is complete control, read-out: Ragweed plant response rating
Procedure, shortened: as §1

[5] = test system: pigweed (Amaranthus retroflexus); assay: Test A preemergence; details: Amaranthus retroflexus, pre-emergence, 240 h, 0 to 100 scale where 0 is no effect and 100 is complete control, read-out: Pigweed plant response rating
Kochia (Kochia scoparia) [6] = assay: Test A preemergence; details: Bassia scoparia, pre-emergence, 240 h, 31 g ai/ha, Preemergence; 0 to 100 scale where 0 is no effect and 100 is complete control; read-out: Kochia plant response rating
Procedure, shortened: as §1

[7] = test system: barnyardgrass (Echinochloa crus-galli); assay: Test A postemergence; details: Echinochloa crus-galli, post-emergence, 240 h
Procedure, shortened: as §1

[8] = test system: Galium (catchweed bedstraw, Galium aparine); assay: Test A postemergence; details: Galium, post-emergence, 240 h
Procedure, shortened: as §1

[9] = test system: giant foxtail (Setaria faberii); assay: Test A postemergence; details: Setaria faberi, post-emergence, 240 h
Procedure, shortened: as §1

[10] = test system: ryegrass, Italian (Italian ryegrass, Lolium multiflorum); assay: Test A postemergence; details: Lolium multiflorum, post-emergence, 240 h
Procedure, shortened: as §1

[11] = test system: ragweed (common ragweed, Ambrosia elatior); assay: Test A postemergence; details: Ambrosia artemisiifolia, post-emergence, 240 h
Procedure, shortened: as §1

[12] = test system: blackgrass (Alopecurus myosuroides); assay: Test A postemergence; details: Alopecurus myosuroides, post-emergence, 240 h
Procedure, shortened: as §1

[13] = test system: pigweed (Amaranthus retroflexus); assay: Test A postemergence; details: Amaranthus retroflexus, post-emergence, 240 h
Procedure, shortened: as §1

[14] = test system: wheat (Triticum aestivum); assay: Test A postemergence; details: Triticum aestivum, post-emergence, 240 h
Procedure, shortened: as §1

corn (Zea mays) = assay: Test A postemergence; details: Zea mays, post-emergence, 240 h
Procedure, shortened: as §1

Kochia (Kochia scoparia) [15] = assay: Test A postemergence; details: Bassia scoparia, post-emergence, 240 h, Postemergence, 31 g ai/ha; visual injury after approx. 10 d; 0 to 100 scale, 0 no effect, 100 complete control; read-out: Plant response rating, Kochia
Procedure, shortened: as §1

[16] = test system: barnyardgrass (Echinochloa crus-galli); assay: Test B flooded paddy test; details: Echinochloa crus-galli, 250 g ai/ha, Flood; 0 to 100 scale where 0 is no effect and 100 is complete control; read-out: Barnyardgrass plant response rating
Procedure, shortened: (§2)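 2-leaf plants; pots flooded 3 cm over soil; cpd added to paddy water; depth held; greenhouse 13–15 d; visual rating vs controls, 0 = no effect, 100 = complete control.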

[17] = test system: sedge, umbrella (small-flower umbrella sedge, Cyperus difformis); assay: Test B flooded paddy test; details: Cyperus difformis, 250 g ai/ha, Flood; 0 to 100 scale where 0 is no effect and 100 is complete control; read-out: Sedge, Umbrella plant response rating
Procedure, shortened: as §2

[18] = test system: ducksalad (Heteranthera limosa); assay: Test B flooded paddy test; details: Heteranthera limosa, 250 g ai/ha, Flood; 0 to 100 scale where 0 is no effect and 100 is complete control; read-out: Ducksalad plant response rating
Procedure, shortened: as §2

rice (Oryra sativa) = assay: Test B flooded paddy test; details: Oryza sativa, 250 g ai/ha, Flood; 0 to 100 scale where 0 is no effect and 100 is complete control; read-out: Rice plant response rating
Procedure, shortened: as §2

[19] = 125 g ai/ha, preemergence, approx. 10 d

## Cc1cc([C@H]2CN(C)C(=O)[C@@H]2C(=O)Nc2ccccc2C(F)(F)F)ccc1Br [Compound 1103]
[1]; 31 g ai/ha, Preemergence
  pest or weed control at 31 g/ha: 20%
[1]; [19]
  pest or weed control at 125 g/ha: 70%
[2]; 31 g ai/ha, Preemergence
  pest or weed control at 31 g/ha: 70%
[2]; [19]
  pest or weed control at 125 g/ha: 90%
[3]; 31 g ai/ha, Preemergence
  pest or weed control at 31 g/ha: 0%
[3]; [19]
  pest or weed control at 125 g/ha: 0%
[4]; 31 g ai/ha, Preemergence
  pest or weed control at 31 g/ha: 0%
[4]; [19]
  pest or weed control at 125 g/ha: 20%
[5]; 31 g ai/ha, Preemergence
  pest or weed control at 31 g/ha: 0%
[5]; [19]
  pest or weed control at 125 g/ha: 0%
Kochia (Kochia scoparia) [6]
  pest or weed control at 31 g/ha: 0%
[7]; 125 g ai/ha, postemergence, visual injury on 0 to 100 scale (0 no effect, 100 complete control), approx. 10 d, read-out: Barnyardgrass plant response rating
  pest or weed control at 125 g/ha: 70%
[7]; Postemergence, 31 g ai/ha, visual injury after approx. 10 d, 0 to 100 scale, 0 no effect, 100 complete control, read-out: Plant response rating, Barnyardgrass
  pest or weed control at 31 g/ha: 40%
[8]; 125 g ai/ha, postemergence, visual injury on 0 to 100 scale (0 no effect, 100 complete control), approx. 10 d, read-out: Galium plant response rating
  pest or weed control at 125 g/ha: 50%
[8]; Postemergence, 31 g ai/ha, visual injury after approx. 10 d, 0 to 100 scale, 0 no effect, 100 complete control, read-out: Plant response rating, Galium
  pest or weed control at 31 g/ha: 30%
[9]; 125 g ai/ha, postemergence, visual injury on 0 to 100 scale (0 no effect, 100 complete control), approx. 10 d, read-out: Foxtail, Giant plant response rating
  pest or weed control at 125 g/ha: 80%
[9]; Postemergence, 31 g ai/ha, visual injury after approx. 10 d, 0 to 100 scale, 0 no effect, 100 complete control, read-out: Plant response rating, Foxtail, Giant
  pest or weed control at 31 g/ha: 50%
[10]; 125 g ai/ha, postemergence, visual injury on 0 to 100 scale (0 no effect, 100 complete control), approx. 10 d, read-out: Ryegrass, Italian plant response rating
  pest or weed control at 125 g/ha: 20%
[10]; Postemergence, 31 g ai/ha, visual injury after approx. 10 d, 0 to 100 scale, 0 no effect, 100 complete control, read-out: Plant response rating, Ryegrass, Italian
  pest or weed control at 31 g/ha: 0%
[11]; 125 g ai/ha, postemergence, visual injury on 0 to 100 scale (0 no effect, 100 complete control), approx. 10 d, read-out: Ragweed plant response rating
  pest or weed control at 125 g/ha: 30%
[11]; Postemergence, 31 g ai/ha, visual injury after approx. 10 d, 0 to 100 scale, 0 no effect, 100 complete control, read-out: Plant response rating, Ragweed
  pest or weed control at 31 g/ha: 0%
[12]; 125 g ai/ha, postemergence, visual injury on 0 to 100 scale (0 no effect, 100 complete control), approx. 10 d, read-out: Blackgrass plant response rating
  pest or weed control at 125 g/ha: 30%
[12]; Postemergence, 31 g ai/ha, visual injury after approx. 10 d, 0 to 100 scale, 0 no effect, 100 complete control, read-out: Plant response rating, Blackgrass
  pest or weed control at 31 g/ha: 20%
[13]; 125 g ai/ha, postemergence, visual injury on 0 to 100 scale (0 no effect, 100 complete control), approx. 10 d, read-out: Pigweed plant response rating
  pest or weed control at 125 g/ha: 0%
[13]; Postemergence, 31 g ai/ha, visual injury after approx. 10 d, 0 to 100 scale, 0 no effect, 100 complete control, read-out: Plant response rating, Pigweed
  pest or weed control at 31 g/ha: 0%
[14]; 125 g ai/ha, postemergence, visual injury on 0 to 100 scale (0 no effect, 100 complete control), approx. 10 d, read-out: Wheat plant response rating
  plant injury at 125 g/ha: 20%
[14]; Postemergence, 31 g ai/ha, visual injury after approx. 10 d, 0 to 100 scale, 0 no effect, 100 complete control, read-out: Plant response rating, Wheat
  plant injury at 31 g/ha: 0%
Corn (Zea mays); 125 g ai/ha, postemergence, visual injury on 0 to 100 scale (0 no effect, 100 complete control), approx. 10 d, read-out: Corn plant response rating
  plant injury at 125 g/ha: 0%
Corn (Zea mays); Postemergence, 31 g ai/ha, visual injury after approx. 10 d, 0 to 100 scale, 0 no effect, 100 complete control
  Corn plant response rating (crop injury, 0 = no effect, 100 = complete kill) at 31 g/ha: 0%
Kochia (Kochia scoparia) [15]
  pest or weed control at 31 g/ha: 0%
[16]
  pest or weed control at 250 g/ha: 75%
[17]
  pest or weed control at 250 g/ha: 0%
[18]
  pest or weed control at 250 g/ha: 90%
Rice (Oryra sativa)
  pest or weed control at 250 g/ha: 25%

From US12077503B2, “Substituted cyclic amides and their use as herbicides” (FMC CORPORATION, priority 2015, dated 2024)
